Assay [1] deals with cereal rye (Secale cereale). In words: Example 9: outdoor pot test, foliar application, termination of cereal rye growth. The note with it: glyphosate-potassium salt 1,543 g/ha; for Growth termination date / Date at the beginning of the onset of effect: cereal rye, outdoors, applied 24 days after seeding, epyrifenacil/saflufenacil 20 g/ha; for Growth termination date: death of terminal and lateral buds in all 7 pots; for Date at the beginning of the onset of effect: visual change in leaf color in all 7 pots, day relative to application; for Incremental dry matter weight: cereal rye above-ground parts, average dry matter weight at growth termination minus average untreated dry matter weight 24 days after seeding (7 pots), epyrifenacil 20 g/ha. The assay is classed as in vivo. How it is done:
A plastic pot was filled with soil, and cereal rye (Secale cereale) was seeded and grown outdoors. Twenty-four days after seeding, RoundupPowerMax was diluted with water, and then the cereal rye was subjected to foliar application from above using an automatic sprayer at a spray volume of 200 L/ha to achieve an application rate of 1,543 g/ha as glyphosate-potassium salt.
At the same time, the cereal rye was similarly seeded in another plastic pot and grown. Twenty-four days after seeding, epyrifenacil emulsifiable concentrate (55 g/L) or saflufenacil suspension (341 g/L) was diluted with water containing 1% (v/v) adjuvant Agri-Dex, and then the cereal rye was subjected to foliar application from above using an automatic sprayer at a spray volume of 200 L/ha to achieve an application rate of 20 g/ha.
At the same time, the cereal rye was similarly seeded in another plastic pot and grown. Twenty-four days after seeding, the above-ground parts were harvested and the dry matter weight (hereinafter referred to as untreated dry matter weight) was measured.
(§1) The cereal rye applied with the herbicide was grown outdoors after application with the herbicide, and in case the growth was terminated, the above-ground parts were harvested at termination of the growth and the dry matter weight was measured. In this test, the growth was judged to be terminated when death of terminal and lateral buds was visually confirmed. The date at the beginning of the onset of effect, the growth termination date, and the dry matter weight at the time of growth termination are shown in Table 3. The onset of the effect was judged by visually observing the change in leaf color. Application with each herbicide was performed using seven pots. The date at the beginning of the onset of effect and the growth termination date in the table were dates on which the onset of effect and growth termination were confirmed in all seven pots, respectively. The incremental dry matter weight was the value calculated by the following formula (1).
Incremental dry matter weight=average dry matter weight at the time of growth termination−average untreated dry matter weight 24 days after seeding Formula (1): • Average dry matter weight at the time of growth termination: average value of dry matter weights of 7 pots at the time of growth termination • Average untreated dry matter weight 24 days after seeding: average value of untreated dry matter weights of 7 pots

The test system of assay [2] is cereal rye (Secale cereale). Description: Example 7: greenhouse pot test, foliar application, termination of cereal rye growth. The assay is classed as in vivo. The note with it: for Dry matter weight: cereal rye above-ground parts at growth termination, average of 3 pots. How it is done: A plastic pot was filled with soil, and cereal rye (Secale cereale) was seeded and grown in a greenhouse. Fifteen days after seeding, RoundupPowerMax was diluted with water, and then the cereal rye was subjected to foliar application from above using an automatic sprayer at a spray volume of 200 L/ha to achieve an application rate of 1,543 g/ha as glyphosate-potassium salt.
At the same time, the cereal rye was similarly seeded in another plastic pot and grown. Twenty-one days after seeding, epyrifenacil emulsifiable concentrate (55 g/L) or saflufenacil suspension (341 g/L) was diluted with water containing 1% (v/v) adjuvant Agri-Dex, and then the cereal rye was subjected to foliar application from above using an automatic sprayer at a spray volume of 200 L/ha to achieve an application rate of 25 g/ha.
After application with the herbicide, the cereal rye was grown in a greenhouse, and in case the growth was terminated, the above-ground parts were harvested at termination of the growth and the dry matter weight was measured. In this test, the growth was judged to be terminated when death of terminal and lateral buds was visually confirmed. The date at the beginning of the onset of effect, the growth termination date, and the dry matter weight at the time of growth termination are shown in Table 1. The onset of the effect was judged by visually observing the change in leaf color. Application with each herbicide was performed using three pots. The date at the beginning of the onset of effect and the growth termination date in the table were dates on which the onset of effect and growth termination were confirmed in all three pots, respectively. The dry matter weight was the average of the three pots.

Assay [3] deals with edible radish (Daikon Radish). Description: Example 10: outdoor pot test, foliar application, termination of radish growth. The assay is classed as in vivo, Raphanus sativus. The note with it: outdoors, applied 24 days after seeding, epyrifenacil 20 g/ha, glyphosate-potassium salt 1,543 g/ha; for Growth termination date: death of terminal and lateral buds in all 7 pots; for Date at the beginning of the onset of effect: visual change in leaf color in all 7 pots, day relative to application. On the procedure:
A plastic pot was filled with soil, and edible radish (Daikon Radish) was seeded and grown outdoors. Twenty-four days after seeding, RoundupPowerMax was diluted with water, and then the radish was subjected to foliar application from above using an automatic sprayer at a spray volume of 200 L/ha to achieve an application rate of 1, 543 g/ha as glyphosate-potassium salt.
At the same time, the radish was similarly seeded in another plastic pot and grown. Twenty-four days after seeding, epyrifenacil emulsifiable concentrate (55 g/L) was diluted with water containing […] adjuvant Agri-Dex, and then the radish was subjected to foliar application from above using an automatic sprayer at a spray volume of 200 L/ha to achieve an application rate of 20 g/ha.
At the same time, the radish was similarly seeded in another plastic pot and grown. Twenty-four days after seeding, the entire plant was dug up and the dry matter weight (hereinafter referred to as untreated dry matter weight) was measured.
as §1, with “radish” for “cereal rye”, “entire plant was dug up” for “above-ground parts were harvested”, “4.” for “3.”, “(2).” for “(1).”
Incremental dry matter weight=average dry matter weight at the time of growth termination−average untreated dry matter weight 24 days after seeding Formula (2): • Average dry matter weight at the time of growth termination: average value of dry matter weights of 7 pots at the time of growth termination • Average untreated dry matter weight 24 days after seeding: average value of untreated dry matter weights of 7 pots

Where [4] appears, read: epyrifenacil 25 g/ha, glyphosate-potassium salt 1,543 g/ha.
The mark [5] stands for this setting: cereal rye, greenhouse, death of terminal and lateral buds in all 3 pots, epyrifenacil/saflufenacil 25 g/ha applied 21 days after seeding, glyphosate-potassium salt 1,543 g/ha applied 15 days after seeding.
The mark [6] stands for this setting: listed as glyphosate-potassium salt.

“And” between values parts separate entries of the source, which are not always exact repeats. Identical values can stand only once. Counter-ions that a name gives are not always drawn.

On to `CCOC(=O)COc1ncccc1Oc1cc(-n2c(=O)cc(C(F)(F)F)n(C)c2=O)c(F)cc1Cl` [Epyrifenacil, epyrifenacil], for which the Growth termination date in assay [1] is 7 Days after application and 7 Days Days after application; in assay [2] (setting [5]) it was 24 Days Days after seeding; in assay [3] it was 7 Days after application and 7 Days after Days after application. Further, the “Date at the beginning of the onset of effect” value in assay [1] and in assay [3] was “Day after” throughout. Further, the Dry matter weight is given as 1,118 kg/ha in assay [2] (setting [4]) and “biomass was greater” in assay [2] (epyrifenacil 25 g/ha, glyphosate-potassium salt 1,543 g/ha, listed as epyrifenacil).

For `O=C(O)CNCP(=O)(O)O` [Glyphosate-potassium salt, glyphosate-potassium salt], the figures for the “Incremental dry matter weight” value in assay [1] and in assay [1] (setting [6]) were −42 Kg/ha and “reduced biomass”, respectively. Besides, the Growth termination date was 21 Days Days after application in assay [1], 21 Days after application in assay [1] (setting [6]), 24 Days Days after seeding in assay [2] (setting [5]) and “failed to terminate the growth” in assay [3]. Further, the “Date at the beginning of the onset of effect” value was 7 Days after Days after application in assay [1]; 5 Days after Days after application in assay [2] (cereal rye, greenhouse, visual change in leaf color in all 3 pots, day relative to application, epyrifenacil/saflufenacil 25 g/ha applied 21 days after seeding, glyphosate-potassium salt 1,543 g/ha applied 15 days after seeding); 10 Days Days after application in assay [3]. For the same compound, the Dry matter weight in assay [2] (setting [4]) was found to be 595 kg/ha. In addition, in assay [2] (cereal rye, greenhouse, death of terminal and lateral buds in all 3 pots, epyrifenacil 25 g/ha, glyphosate-potassium salt 1,543 g/ha), the “Growth termination date (days after application)” value was “seeding (9 days after application”.

For the origin of these results see patent US20260013502A1, “METHOD FOR TERMINATING COVER CROP GROWTH” (SUMITOMO CHEMICAL COMPANY, LIMITED, priority 2022, published 2026).
